# Peptide text beside a SMILES is read from it. * marks the point of attachment. C18 diacid = O=C(O)CCCCCCCCCCCCCCCCC(=O)*
# Tests used:
# [1] = biological target: T1, human amylin receptor (human calcitonin receptor + human RAMP3), BHK tk'ts 13 cells (Homo sapiens, UniProt O60896+P30988); assay: Assay (Va) binding to the human amylin receptor (whole cell); conditions: read-out: hAmylin-R binding IC50
# T1 construct: expressed in transfected cells; host or cells: BHK tk'ts 13
# Experimental: The day before the assay the cells were Seeded into Poly-D-Lysin coated 384W Opaque White, BD BioCoat plates (10000 cells/well) and Incubated overnight at 37° C., 5% CO2, 95% humidity.
# [2] = biological target: T2, human amylin 3(a) receptor (human calcitonin receptor + RAMP-3), BHK570 cells (Homo sapiens, UniProt O60896+P30988); assay: Assay (II)b functional CRE-luciferase assay without albumin, human amylin receptor; format: cell-based; conditions: Tested without HSA; read-out: hAmylin-R funct. EC50
# T2 construct: host or cells: BHK570
# T2 sequence (O60896 24-148, one chain of several): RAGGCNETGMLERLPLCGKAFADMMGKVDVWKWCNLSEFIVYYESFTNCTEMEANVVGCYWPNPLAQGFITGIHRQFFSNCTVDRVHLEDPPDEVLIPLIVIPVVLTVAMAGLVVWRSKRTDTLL
# From the text: (§1) Assay(II)b—Human Calcitonin and Amylin Receptor Assay without Albumin
# (§2) 1. Luciferase Assay Outline
# (§3) Activation of calcitonin and amylin (co-expression of calcitonin receptor and receptor activity modifying proteins (RAMP)) receptors lead to increased intracellular concentrations of cAMP. Consequently, transcription is activated by promoters containing multiple copies of the cAMP response element (CRE). It is thus possible to measure amylin activity by the use of a CRE luciferase reporter gene introduced into BHK cells also expressing calcitonin or amylin receptors.
# (§4) 2. Construction of Calcitonin (a)—and Amylin 3(a)—Receptor/CRE-Luc Cell Line.
# (§5) A BHK570 cell line was stably transfected with the human calcitonin receptor and a CRE-responsive luciferase reporter gene (Hollex-1 cell line, obtained from ZymoGenetics described in U.S. Pat. No. 5,622,839). The cell line was further transfected with RAMP-3, using standard methods. This turns the calcitonin receptor into an amylin 3(a) receptor. Methotrexate, Neomycin, and Hygromycin are selection markers for luciferase, the calcitonin receptor, and RAMP-3, respectively. To prepare the batches of frozen cells used in the luciferase assay described in the section below, the cells were cultured in growth medium (DMEM with 10% FBS, 1% Pen/Strep and 1 mM Napyruvate). […] Cells at approximately 80-90% confluence were washed with PBS and loosened from the plates with Versene. After centrifugation (2 min, 1300 rpm, in a Centrion Scientific centriuge C2 series with a BRK 5510 rotor head), the cell pellet was dissolved in 10% DMSO, 30% FBS and 60% growth medium and frozen (−80° C.) until utilization.
# (§6) The day before the experiment, BHK calcitonin (a) receptor- or amylin 3(a)-receptor/CRE-luc cells were thawed, washed twice, and seeded in 40 μl growth medium on white 384 well culture plates (4.000 cells/well). On the assay day, the cells were washed 3 times in assay media (Dulbecco media W/o phenol red, 500 ml (Gibco, 11880-028); 0.1% ovalbumin; 10 mM Hepes pH 7.4; 1× Glutamin; 1% Pen/Strep). Then, 30 μl/well of sample diluted in assay buffer was added. After 3 hours of incubation at 37° C. and 5% CO2, the reaction was terminated by adding 30 μl/well SteadyLite Plus™. The plates were shaken at 300 rpm for 5 min at RT. Then, the plates were sealed and incubated at room temperature for 30 minutes. Finally, luminescence was tested on a TopCounter (Packard) in SPC (single photon counting) mode.
# (§7) Additional Comment Regarding Use of Data Retrieved Via this Method
# (§8) For the same reasons, measurements made in Assay IIa should not be compared in Assay IIb.
# [3] = biological target: T3, human calcitonin (a) receptor, BHK570 cells (Homo sapiens, UniProt P30988); assay: Assay (II)b functional CRE-luciferase assay without albumin, human calcitonin receptor; format: cell-based; conditions: Tested without HSA; read-out: hCTR funct. EC50
# T3 construct: host or cells: BHK570
# T3 sequence (P30988 25-474): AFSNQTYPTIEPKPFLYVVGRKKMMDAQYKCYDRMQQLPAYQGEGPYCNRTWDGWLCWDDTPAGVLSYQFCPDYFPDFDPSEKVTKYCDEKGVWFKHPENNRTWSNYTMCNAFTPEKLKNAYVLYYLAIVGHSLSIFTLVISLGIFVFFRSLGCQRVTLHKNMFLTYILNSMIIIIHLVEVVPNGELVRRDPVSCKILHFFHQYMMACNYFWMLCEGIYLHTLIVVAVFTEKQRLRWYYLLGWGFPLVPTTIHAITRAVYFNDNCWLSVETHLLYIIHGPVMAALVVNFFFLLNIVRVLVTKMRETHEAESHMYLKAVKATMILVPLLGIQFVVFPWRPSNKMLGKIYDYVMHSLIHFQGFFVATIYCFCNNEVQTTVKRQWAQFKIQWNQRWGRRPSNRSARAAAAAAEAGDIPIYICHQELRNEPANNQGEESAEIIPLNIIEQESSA
# From the text: as §1, §2, §3, §4, §5, §6, §7, §8
# [4] = Assay (XV) subcutaneous PK in LYD-pigs, co-formulated or co-dosed with liraglutide; format: in vivo; conditions: administered as co-formulations to LYD pigs
# Experimental: The studies were performed in female LYD pigs of SPF origin delivered from Lars Jonson, Hillerødvej 70, Lynge.
# Before the animals arrived, the animal rooms and pens were cleaned and disinfected with Virkon S. During the study, the animal rooms were cleaned and washed regularly.
# The pigs were group housed during the acclimatisation period. The pigs were fitted with a central venous catheter while under anaesthesia and after the single housed after catheterization in pens ≧3.1 m^2 with straw as bedding. The temperature in the rooms was set at 20−23° C. and the relative humidity to 30-70%. The rooms were illuminated to give a cycle of 12 hours light and 12 hours darkness. Light was on from 07.00 to 19.00 h.
# The formulations was prepared similarly and filled in cartridges in all cases.
# The animals were dosed subcutaneously as follows.
# The s.c. dosing was performed in 4 mm depth, in a site of injection which was secured on beforehand by ultrasound to avoid muscular tissue or heavy vascularization. Dosing was made using NovoPen®4 and needle Novofine 28 G and a needle stopper to ensure 4 mm depth of injection. The needle was kept in the subcutis for 10 seconds after the injection to secure deposition of compound. […] The co-formulation was administered as one injection. Study was performed as a cross over study with adequate wash out between dosings.
# Blood was sampled at predefined time points for up till 15 days post dosing to adequately cover the full plasma concentration-time profile of the mimylin derivative. Blood samples were drawn from a central venous catheter to jugularis made through the catheter which was afterwards flushed with 10 ml 0.9% NaCl.
# For each blood sampling time point approximately 0.8 mL of whole blood was collected in a 1.5 mL EDTA coated tube, and the tube was gently turned to allowing mixing of the sample with the anticoagulant. Blood samples (for example 0.8 mL) were collected in EDTA buffer (8 mM) and then centrifuged at 4° C. and 2000 G for 10 minutes. Plasma was pipetted into Micronic tubes on dry ice, and kept at −20° C. until analysis.
# Individual plasma concentration-time profiles were analysed by a non-compartmental model in Phoenix WinNonlin version 6.3 (Pharsight Inc., Mountain View, Calif., USA).
# The area under the plasma concentration versus time curve (AUC, [time×concentration]) was calculated (by the Pharsight programme) after subcutaneous administration, typically until 240-288 hours post dosing, or until last measured concentration. The AUC was calculated and given as AUCinf-pred and dose normalized.
# Results of co-formulation studies in LYD-pigs are summarized below
# [5] = Assay (IV) determination of solubility; format: physicochemical
# Experimental: Assay (IV)—Determination of Solubility
# The mimylin peptide was dissolved in water at ˜500 nmol/ml and mixed 1:1 with a series of buffers (100 mM glycylglycine pH 3.0, 100 mM glycylglycine pH 4.0, 100 mM glycylglycine pH 5.0, 100 mM bistrispropane pH 6.0, 100 mM bistrispropane pH 6.5, 100 mM bistrispropane pH 7.0, 100 mM bistrispropane pH 7.5, 100 mM bistrispropane pH 8.0).
# T1 sequence (O60896 24-148, one chain of several): as the sequence (O60896 24-148, one chain of several) above
IC50 [1],EC50 [2],EC50 [3],"solubility at 18 h ([5]; bistrispropane buffer, pH 6.5)","solubility at 18 h ([5]; bistrispropane buffer, pH 7.5)","solubility at 18 h ([5]; bistrispropane buffer, pH 6.0)","solubility at 18 h ([5]; bistrispropane buffer, pH 7.0)","solubility at 18 h ([5]; bistrispropane buffer, pH 8.0)","solubility at 18 h ([5]; glycylglycine buffer, pH 3.0)","solubility at 18 h ([5]; glycylglycine buffer, pH 4.0)","solubility at 18 h ([5]; glycylglycine buffer, pH 5.0)",SMILES,effect on PK profile of the co-formulated peptide [4]
1180 pM,11 pM,6 pM,,,,,,,,,"CC(C)C[C@H](NC(=O)CNC(=O)[C@H](CO)NC(=O)[C@@H](N)CC(C)C)C(=O)N[C@@H](CO)C(=O)N[C@H](C(=O)N[C@@H](C)C(=O)N[C@H](C(=O)N[C@@H](CC(C)C)C(=O)NCC(=O)N[C@@H](CCCNC(=N)N)C(=O)N[C@@H](CC(C)C)C(=O)N[C@@H](CO)C(=O)N[C@@H](CCC(N)=O)C(=O)N[C@@H](CCC(=O)O)C(=O)N[C@@H](CC(C)C)C(=O)N[C@@H](Cc1c[nH]cn1)C(=O)N[C@@H](CCC(=O)O)C(=O)N[C@@H](CC(C)C)C(=O)N[C@@H](CCC(N)=O)C(=O)N[C@H](C(=O)N[C@@H](Cc1ccc(O)cc1)C(=O)N1CCC[C@H]1C(=O)N[C@@H](CCCNC(=N)N)C(=O)N[C@H](C(=O)N[C@@H](CCC(=O)O)C(=O)N[C@H](C(=O)NCC(=O)N[C@@H](CO)C(=O)N[C@@H](CCC(N)=O)C(=O)N[C@H](C(=O)N[C@@H](Cc1ccc(O)cc1)C(N)=O)[C@@H](C)O)[C@@H](C)O)[C@@H](C)O)[C@@H](C)O)C(C)C)[C@@H](C)O [127bb, H—LSGLSTAVLGRLSQELHELQTYPRTETGSQTY—NH2] (H-LSGLSTAVLGRLSQELHELQTYPRTETGSQTY-NH2)",
,,,,,,,,,,,"CCCCCCCCCCCCCCCC(=O)N[C@@H](CCC(=O)NCCCC[C@H](NC(=O)[C@H](C)NC(=O)[C@H](C)NC(=O)[C@H](CCC(N)=O)NC(=O)CNC(=O)[C@H](CCC(=O)O)NC(=O)[C@H](CC(C)C)NC(=O)[C@H](Cc1ccc(O)cc1)NC(=O)[C@H](CO)NC(=O)[C@H](CO)NC(=O)[C@@H](NC(=O)[C@H](CC(=O)O)NC(=O)[C@H](CO)NC(=O)[C@@H](NC(=O)[C@H](Cc1ccccc1)NC(=O)[C@@H](NC(=O)CNC(=O)[C@H](CCC(=O)O)NC(=O)[C@H](C)NC(=O)[C@@H](N)Cc1cnc[nH]1)[C@@H](C)O)[C@@H](C)O)C(C)C)C(=O)N[C@@H](CCC(=O)O)C(=O)N[C@@H](Cc1ccccc1)C(=O)N[C@H](C(=O)N[C@@H](C)C(=O)N[C@@H](Cc1c[nH]c2ccccc12)C(=O)N[C@@H](CC(C)C)C(=O)N[C@H](C(=O)N[C@@H](CCCNC(=N)N)C(=O)NCC(=O)N[C@@H](CCCNC(=N)N)C(=O)NCC(=O)O)C(C)C)[C@@H](C)CC)C(=O)O [Liraglutide, N^ε26-[(4S)-4-carboxy-4-(hexadecanoylamino)butanoyl]-[Arg^34]-GLP-1-(7-37)-peptide, reference compound]",not affect the PK profile of Ex. compound 2 or 46
891 pM,7 pM,6 pM,≥ 200 µM,≥ 200 µM,≥ 200 µM,≥ 200 µM,≥ 200 µM,≥ 200 µM,≥ 200 µM,≥ 200 µM,"CC[C@H](C)[C@H](NC(=O)[C@@H](NC(=O)[C@H](C)NC(=O)[C@@H](NC(=O)[C@H](CO)NC(=O)[C@H](CC(C)C)NC(=O)[C@H](CCC(=O)O)NC(=O)[C@H](CO)NC(=O)[C@H](C)NC(=O)[C@H](CCC(=O)O)NC(=O)CCCCCCCCCCCCCCCCC(=O)O)[C@@H](C)O)C(C)C)C(=O)NCC(=O)N[C@@H](CCCNC(=N)N)C(=O)N[C@@H](CC(C)C)C(=O)N[C@@H](CO)C(=O)N[C@@H](C)C(=O)N[C@@H](CCC(=O)O)C(=O)N[C@@H](CC(C)C)C(=O)N[C@@H](Cc1c[nH]cn1)C(=O)N[C@@H](CCC(=O)O)C(=O)N[C@@H](CC(C)C)C(=O)N[C@@H](C)C(=O)N[C@H](C(=O)N[C@@H](CC(C)C)C(=O)N1CCC[C@H]1C(=O)N[C@@H](CCCNC(=N)N)C(=O)N[C@H](C(=O)N[C@@H](CCC(=O)O)C(=O)N[C@H](C(=O)NCC(=O)N1CCC[C@H]1C(=O)N[C@@H](CCC(=O)O)C(=O)N[C@@H](CO)C(=O)N1CCC[C@H]1C(N)=O)[C@@H](C)O)[C@@H](C)O)[C@@H](C)O [compound 26, [N-terminal(C18 diacid), 9V, 10I]mimylin] ({C18 diacid}-EASELSTAVIGRLSAELHELATLPRTETGPESP-NH2)",

# From patent publication US9593149B2, “Amylin and calcitonin receptor agonist” (Novo Nordisk A/S, priority 2014, dated 2017)
